Tested on: SARS-CoV-2
Assay: microbe, parasite or virus in culture
Settings: Severe acute respiratory syndrome coronavirus 2, Vero C1008, 48 h

Row | SMILES | IC50 [µM] | IC50 (read-out: pIC50 (converted)) [µM]
1 | COc1cccc(C(=O)CCNC(C)C(O)c2ccccc2)c1 (centres undefined) | > 20 | > 20
2 | CN1C2CCC1CC(O)C2 (centres undefined) | > 20 | > 20
3 | CC[C@H]1OC(=O)[C@H](C)C(=O)[C@H](C)[C@@H](O[C@@H]2O[C@H](C)C[C@H](N(C)C)[C@H]2O)[C@](C)(OC)C[C@@H](C)C(=O)[C@H](C)[C@@H]2N(CCCCn3cnc(-c4cccnc4)c3)C(=O)O[C@@]21C | > 20 | > 20
4 | CC(=O)N[C@@H]1[C@@H](O[C@H](C)C(=O)O)[C@H](O)[C@@H](CO)O[C@@H]1O | > 20 | > 20
5 | COc1ccc(CCN(C)CCCC2(c3ccc(OC)c(OC)c3)S(=O)(=O)CCCS2(=O)=O)cc1OC | > 20 | > 20
6 | CN1CC(O)C2=CC(=O)C(=O)C=C21 (centres undefined) | > 20 | > 20
7 | Cc1cc2c(cc1S(N)(=O)=O)S(=O)(=O)CCC2 | > 20 | > 20
8 | Fc1ccc(C(c2ccc(F)cc2)N2CCN(C/C=C\c3ccccc3)CC2)cc1 | > 20 | > 20
9 | CC12CCC3C4CCC(=O)C=C4CCC3C1CCC2OC(=O)CCc1ccccc1 (centres undefined) | > 20 | > 20
10 | COc1cccc(C=O)c1O | > 20 | > 20
11 | CCCCCCCCCCCCCCCC(=O)OCC(O)C1OC(=O)C(O)=C1O (centres undefined) | > 20 | > 20
12 | COc1ccc2c(c1)C(C(=O)N(Cc1ccc(N(C)C)cc1)c1ccc(C(C)C)cc1)CCC2 (centres undefined) | > 20 | > 20
13 | NC(COP(=O)(O)O)C(=O)O (centres undefined) | > 20 | > 20
14 | CCC(CC)CC(=O)c1c(C(=O)OC)c(-c2ccc(OC)c(OC)c2)c2c(OC)c(OC)c(OC)cc2c1O | > 20 | > 20
15 | CN1C(CC(O)c2ccccc2)CCCC1CC(O)c1ccccc1 (centres undefined) | > 20 | > 20
16 | CCCN(CCC)CCc1ccc(OC)c(OCCc2ccccc2)c1 | > 20 | > 20
17 | CCCc1nn(C)c2c(=O)[nH]c(-c3cc(S(=O)(=O)N4CCN(C)CC4)ccc3OCC)nc12 | > 20 | > 20
18 | CC(C)C1C(=O)N2CCCC2C2(O)OC(NC(=O)C3C=C4c5cccc6[nH]cc(c56)CC4N(C)C3)(C(C)C)C(=O)N12 (centres undefined) | > 20 | > 20
19 | CCOC(=O)C1=CCCC[C@@H]1S(=O)(=O)Nc1ccc(F)cc1Cl | > 20 | > 20
20 | Cc1c(C)c2ccc(OCCCN3CCN(Cc4ccc(Cl)cc4)CC3)cc2oc1=O | > 20 | > 20
21 | O=C(Nc1cccc2c(=O)cc(-c3nnn[nH]3)oc12)c1ccc(OCCCCc2ccccc2)cc1 | > 100 | > 100

Row | SMILES | IC50 [µM] | IC50 (read-out: pIC50 (converted)) [µM]
22 | CC(=O)OC1(c2ccccc2)CCN(CCc2ccccc2)CC1 | > 20 | > 20
23 | NCC1CCC(C(=O)Oc2ccc(CCC(=O)O)cc2)CC1 (centres undefined) | > 20 | > 20
24 | CC(=O)N1C[C@H](O)C[C@H]1C(=O)N[C@@H](CCCN=C(N)N)C(=O)c1nc2ccccc2s1 | > 20 | > 20
25 | CNC(CC(=O)O)C(=O)O (centres undefined) | > 20 | > 20
26 | Nc1nc(O)c2ncn([C@@H]3O[C@H](CO)[C@@H](O)[C@H]3F)c2n1 | > 20 | > 20
27 | COc1cc2c(cc1OC)C(C)NCC2 (centres undefined) | > 20 | > 20
28 | NC(=O)CN1CC(c2ccccc2)CC1=O (centres undefined) | > 20 | > 20
29 | CN1C(=O)C(NC(=O)c2cc3ccccc3[nH]2)N=C(c2ccccc2)c2ccccc21 (centres undefined) | > 20 | > 20
30 | CC(=O)N[C@@H](Cc1ccccc1)C(=O)N[C@H]1CCCNC(=O)[C@H](CCCN=C(N)N)NC(=O)[C@H](Cc2c[nH]c3ccccc23)NC(=O)[C@@H](CC2CCCCC2)NC(=O)[C@@H]2CCCN2C1=O | > 20 | > 20
31 | O=C(O)CNC(=O)c1nc(Cl)c2ccccc2c1O | > 20 | > 20
32 | O=P(O)(O)OC[C@H]1OC(O)[C@H](O)[C@@H](O)[C@@H]1O (some centres undefined) | > 20 | > 20
33 | CC(=O)N[C@@H](C=O)[C@@H](O)[C@H](O)[C@H](O)CO | > 20 | > 20
34 | NS(=O)(=O)NCc1csc2ccccc12 | > 20 | > 20
35 | C[C@H]1C(O)O[C@@H]2O[C@@]3(C)CC[C@H]4[C@H](C)CCC1[C@@]24OO3 (some centres undefined) | > 20 | > 20
36 | CCC(=O)OC(CC(=O)O)C[N+](C)(C)C (centres undefined) | > 20 | > 20
37 | COc1ccc2c3c1OC1C(OC(C)=O)=CCC4C(C2)N(C)CCC314 (centres undefined) | > 20 | > 20
38 | CC1CC2C3CCC4=CC(=O)C=CC4(C)[C@@]3(F)C(O)CC2(C)C1(O)C(=O)COP(=O)(O)O (some centres undefined) | > 20 | > 20
39 | O=C(O)Cc1ccc(OCCNCC(O)c2ccccc2)cc1 (centres undefined) | > 20 | > 20
40 | CN1CCO[C@@H](c2ccccc2)c2ccccc2C1 | > 20 | > 20
41 | COc1ccc2c(c1)CC[C@@H](CN(C)CC(=O)O)[C@H]2c1ccccc1 | > 20 | > 20
42 | CNC(=O)CCN1CCN(CCC=C2c3ccccc3Sc3ccc(Cl)cc32)CC1 | > 20 | > 20

Row | SMILES | IC50 [µM] | IC50 (read-out: pIC50 (converted)) [µM]
43 | C=CCNS(=O)(=O)c1cc(S(N)(=O)=O)c(Cl)cc1/N=C/C=C(\C)O | > 20 | > 20
44 | CCOC(=O)C1OC1C(=O)NC(CC(C)C)C(=O)N1CCN(Cc2ccc(OC)c(OC)c2OC)CC1 (centres undefined) | > 20 | > 20
45 | CC1CC2C3CC(F)C4=CC(=O)C=CC4(C)C3C(O)CC2(C)C1C(=O)CO (centres undefined) | > 20 | > 20
46 | CCC[C@@H]1C[C@@H](C(=O)N[C@@H](C(C)O)[C@H]2O[C@H](SC)[C@H](O)[C@@H](O)[C@H]2O)N(C)C1 (some centres undefined) | > 20 | > 20
47 | Cc1nnc(SCC2=C(C(=O)O)N3C(=O)C(NC(=O)C(N)c4ccc(O)cc4)C3SC2)s1 (centres undefined) | > 20 | > 20
48 | COc1cccc(C2(CCCN(C)C)C(=O)NC(=O)CC2(C)C)c1 (centres undefined) | > 20 | > 20
49 | CN[C@@H]1[C@H](O[C@H]2[C@H](O[C@@H]3[C@@H](O)[C@H](O)[C@@H](NC(=N)N)[C@H](O)[C@H]3NC(=N)N)O[C@@H](C)[C@]2(O)CO)O[C@@H](CO)[C@H](O)[C@H]1O | > 20 | > 20
50 | CC1(O)/C=C\C=C(\CO)C2CC(C)(C)C2(O)CC1 (centres undefined) | > 20 | > 20
51 | CN(C)Cc1ccc(CSCCNC2=NS(=O)(=O)c3cscc32)o1 | > 20 | > 20
52 | C=C(C)[C@@H]1[C@@H]2OC(=O)[C@H]1[C@]1(O)C[C@H]3O[C@]34C(=O)O[C@H]2[C@]14C.CC(C)(O)[C@@H]1[C@@H]2OC(=O)[C@H]1[C@]1(O)C[C@H]3O[C@]34C(=O)O[C@H]2[C@]14C | > 20 | > 20
53 | CC[C@H]1C2C[C@H]3[C@@H]4N(C)c5ccccc5[C@]45C[C@H](C2[C@H]5O)N3[C@@H]1O (some centres undefined) | > 20 | > 20
54 | COc1ccc2c(c1)c(CC(=O)NC(CO)C(=O)O)c(C)n2C(=O)c1ccc(Cl)cc1 (centres undefined) | > 20 | > 20
55 | C[C@@H]1[C@H](O)[C@@H](C)\C=C/C=C\C=C/C=C\C=C/C=C\C=C/[C@H](O[C@@H]2O[C@H](C)[C@@H](O)[C@H](N)[C@@H]2O)C[C@@H]2O[C@](O)(C[C@@H](O)C[C@@H](O)[C@H](O)CC[C@@H](O)C[C@@H](O)CC(=O)O[C@H]1C)C[C@H](O)[C@H]2C(=O)O | > 20 | > 20
56 | N=C(N)NCCCNC(=O)[C@@H]1CCCCN1C(=O)[C@H](CC1CCCCC1)NCC(=O)O | > 20 | > 20
57 | CC12CCC(=O)C[C@@H]1CCC1C2CCC2(C)C1CCC2(C)O (some centres undefined) | > 20 | > 20
58 | CC1CC[C@@]2(OC1)OC1CC3C4CC[C@H]5CC(O)CCC5(C)C4CC(=O)C3(C)C1C2C (some centres undefined) | > 20 | > 20
59 | CC(C)CCCC(C)C1CCC2C3C=CC4=CC(=O)CCC4(C)C3CCC12C (centres undefined) | > 20 | > 20
60 | CC(/C=C1\SC(=S)N(CC(=O)O)C1=O)=C\c1ccccc1 | > 20 | > 20
61 | CCN(CC)CCOC(=O)C1(c2ccccc2)CCCC1 | > 20 | > 20
62 | O=C(OC1Cc2c(O)cc(O)cc2O[C@@H]1c1ccc(O)c(O)c1)c1cc(O)c(O)c(O)c1 (some centres undefined) | > 20 | > 20
